Measurements taken from the supplement of paper PMC10307832.

Key:
Assay in all cases: relative viability (nuclei count vs DMSO), 5 days (fraction); higher = more cells survive
[1] = compound: CC1=CC(=C(N1C2=CC=C(C=C2)Cl)C)C(=O)CN3CCCCC3 [IU1-47] + O=C(c1cc(Cc2n[nH]c(=O)c3ccccc23)ccc1F)N1CCN(C(=O)C2CC2)CC1 [Olaparib] (partner 8 µM)
Outline: (§1)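 Values are medians from duplicate plates. Each reflects relative viability, defined as the nuclei count of treated wells over that of vehicle wells. Lung cancer cell lines in 1536-well plates were pin-tool dosed one day after seeding with one drug alone or with a fixed anchor-drug dose plus five library-drug doses (not always all listed) in √10 steps, then fixed, stained and imaged at 4× after 5 days.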

[2] = compound: Cc1nc(C(=O)NCC(=O)O)c(O)c2ccc(Oc3ccccc3)cc12 [FG-4592] + O=C(CCCCCCC(=O)Nc1ccccc1)NO [Vorinostat] (partner 1 µM)
Outline: as §1

[3] = compound: CC1=CC(=C(N1C2=CC=C(C=C2)Cl)C)C(=O)CN3CCCCC3 [IU1-47] + Nc1nc2[nH]cc(CCc3ccc(C(=O)N[C@@H](CCC(=O)O)C(=O)O)cc3)c2c(=O)[nH]1 [Pemetrexed] (partner 0.2 µM)
Outline: as §1

[4] = compound: Cc1nc(C(=O)NCC(=O)O)c(O)c2ccc(Oc3ccccc3)cc12 [FG-4592] + CS(=O)(=O)N1CCN(Cc2cc3nc(-c4cccc5[nH]ncc45)nc(N4CCOCC4)c3s2)CC1 [Pictilisib] (partner 1 µM)
Outline: as §1

LOU-NH91
relative viability ([1]; first compound 0.08 µM): 1.02
relative viability ([1]; first compound 0.253 µM): 0.995
relative viability ([1]; first compound 0.8 µM): 0.877
relative viability ([1]; first compound 2.53 µM): 0.966
relative viability ([1]; first compound 8 µM): 0.886
relative viability ([2]; first compound 0.08 µM): 0.993
relative viability ([2]; first compound 0.253 µM): 0.86
relative viability ([2]; first compound 0.8 µM): 0.817
relative viability ([2]; first compound 2.53 µM): 0.866
relative viability ([2]; first compound 8 µM): 0.95
relative viability ([3]; first compound 0.08 µM): 0.389
relative viability ([3]; first compound 0.253 µM): 0.386
relative viability ([3]; first compound 0.8 µM): 0.526
relative viability ([3]; first compound 2.53 µM): 0.38
relative viability ([3]; first compound 8 µM): 0.35
relative viability ([4]; first compound 0.08 µM): 0.456
relative viability ([4]; first compound 0.253 µM): 0.51
relative viability ([4]; first compound 0.8 µM): 0.509
relative viability ([4]; first compound 2.53 µM): 0.545
relative viability ([4]; first compound 8 µM): 0.554

LU99A
relative viability ([1]; first compound 0.08 µM): 0.233
relative viability ([1]; first compound 0.253 µM): 0.273
relative viability ([1]; first compound 0.8 µM): 0.272
relative viability ([1]; first compound 2.53 µM): 0.265
relative viability ([1]; first compound 8 µM): 0.245
relative viability ([2]; first compound 0.08 µM): 0.464
relative viability ([2]; first compound 0.253 µM): 0.523
relative viability ([2]; first compound 2.53 µM): 0.506
relative viability ([2]; first compound 8 µM): 0.423
relative viability ([3]; first compound 0.08 µM): 0.178
relative viability ([3]; first compound 0.253 µM): 0.227
relative viability ([3]; first compound 0.8 µM): 0.155
relative viability ([3]; first compound 2.53 µM): 0.187
relative viability ([3]; first compound 8 µM): 0.191
relative viability ([4]; first compound 0.08 µM): 0.311
relative viability ([4]; first compound 0.253 µM): 0.28
relative viability ([4]; first compound 0.8 µM): 0.291
relative viability ([4]; first compound 2.53 µM): 0.316
relative viability ([4]; first compound 8 µM): 0.339

NCI-H522
relative viability ([1]; first compound 0.08 µM): 0.724
relative viability ([1]; first compound 0.253 µM): 0.715
relative viability ([1]; first compound 0.8 µM): 0.525
relative viability ([1]; first compound 2.53 µM): 0.665
relative viability ([1]; first compound 8 µM): 0.668
relative viability ([2]; first compound 0.08 µM): 0.962
relative viability ([2]; first compound 0.253 µM): 0.794
relative viability ([2]; first compound 2.53 µM): 0.724
relative viability ([2]; first compound 8 µM): 0.89
relative viability ([3]; first compound 0.08 µM): 0.923
relative viability ([3]; first compound 0.253 µM): 0.975
relative viability ([3]; first compound 0.8 µM): 1.02
relative viability ([3]; first compound 2.53 µM): 0.735
relative viability ([3]; first compound 8 µM): 0.958

NCI-H727
relative viability ([1]; first compound 0.08 µM): 0.661
relative viability ([1]; first compound 0.253 µM): 0.729
relative viability ([1]; first compound 0.8 µM): 0.691
relative viability ([1]; first compound 2.53 µM): 0.64
relative viability ([1]; first compound 8 µM): 0.66
relative viability ([2]; first compound 0.08 µM): 1.07
relative viability ([2]; first compound 0.253 µM): 1.17
relative viability ([2]; first compound 0.8 µM): 1.28
relative viability ([2]; first compound 2.53 µM): 1.33
relative viability ([2]; first compound 8 µM): 1.21
relative viability ([4]; first compound 0.08 µM): 0.311
relative viability ([4]; first compound 0.253 µM): 0.274
relative viability ([4]; first compound 0.8 µM): 0.307
relative viability ([4]; first compound 2.53 µM): 0.335
relative viability ([4]; first compound 8 µM): 0.452

NCI-H1299
relative viability ([1]; first compound 0.08 µM): 0.982
relative viability ([1]; first compound 0.253 µM): 1.03
relative viability ([1]; first compound 0.8 µM): 0.958
relative viability ([1]; first compound 2.53 µM): 0.923
relative viability ([1]; first compound 8 µM): 0.959
relative viability ([4]; first compound 0.08 µM): 0.913
relative viability ([4]; first compound 0.253 µM): 0.645
relative viability ([4]; first compound 0.8 µM): 0.915
relative viability ([4]; first compound 2.53 µM): 0.724
relative viability ([4]; first compound 8 µM): 0.752

NCI-H1563
relative viability ([3]; first compound 0.08 µM): 0.892
relative viability ([3]; first compound 0.253 µM): 0.829
relative viability ([3]; first compound 0.8 µM): 0.871
relative viability ([3]; first compound 2.53 µM): 0.703
relative viability ([3]; first compound 8 µM): 0.716
relative viability ([4]; first compound 0.08 µM): 0.655
relative viability ([4]; first compound 0.253 µM): 0.624
relative viability ([4]; first compound 0.8 µM): 0.657
relative viability ([4]; first compound 2.53 µM): 0.648
relative viability ([4]; first compound 8 µM): 0.669

NCI-H1648
relative viability ([1]; first compound 0.08 µM): 1.16
relative viability ([1]; first compound 0.253 µM): 1.17
relative viability ([1]; first compound 0.8 µM): 0.813
relative viability ([1]; first compound 2.53 µM): 0.656
relative viability ([1]; first compound 8 µM): 0.577
relative viability ([2]; first compound 0.08 µM): 0.481
relative viability ([2]; first compound 0.253 µM): 0.683
relative viability ([2]; first compound 2.53 µM): 0.349
relative viability ([2]; first compound 8 µM): 0.708
relative viability ([3]; first compound 0.08 µM): 0.776
relative viability ([3]; first compound 0.253 µM): 0.888
relative viability ([3]; first compound 0.8 µM): 1.01
relative viability ([3]; first compound 2.53 µM): 0.644
relative viability ([3]; first compound 8 µM): 0.494

NCI-H1703
relative viability ([1]; first compound 0.08 µM): 0.387
relative viability ([1]; first compound 0.253 µM): 0.39
relative viability ([1]; first compound 0.8 µM): 0.447
relative viability ([1]; first compound 2.53 µM): 0.355
relative viability ([1]; first compound 8 µM): 0.487
relative viability ([4]; first compound 0.08 µM): 0.271
relative viability ([4]; first compound 0.253 µM): 0.236
relative viability ([4]; first compound 0.8 µM): 0.218
relative viability ([4]; first compound 2.53 µM): 0.253
relative viability ([4]; first compound 8 µM): 0.245

NCI-H1792
relative viability ([1]; first compound 0.08 µM): 0.659
relative viability ([1]; first compound 0.253 µM): 0.481
relative viability ([1]; first compound 0.8 µM): 0.365
relative viability ([1]; first compound 2.53 µM): 0.384
relative viability ([1]; first compound 8 µM): 0.215
relative viability ([3]; first compound 0.08 µM): 0.529
relative viability ([3]; first compound 0.253 µM): 0.817
relative viability ([3]; first compound 0.8 µM): 0.789
relative viability ([3]; first compound 2.53 µM): 0.877
relative viability ([3]; first compound 8 µM): 0.35
relative viability ([4]; first compound 0.08 µM): 0.296
relative viability ([4]; first compound 0.253 µM): 0.248
relative viability ([4]; first compound 0.8 µM): 0.279
relative viability ([4]; first compound 2.53 µM): 0.246
relative viability ([4]; first compound 8 µM): 0.318

NCI-H2342
relative viability ([1]; first compound 0.08 µM): 0.49
relative viability ([1]; first compound 0.253 µM): 0.432
relative viability ([1]; first compound 0.8 µM): 0.463
relative viability ([1]; first compound 2.53 µM): 0.425
relative viability ([1]; first compound 8 µM): 0.418
relative viability ([2]; first compound 0.08 µM): 0.701
relative viability ([2]; first compound 0.253 µM): 0.721
relative viability ([2]; first compound 0.8 µM): 0.697
relative viability ([2]; first compound 2.53 µM): 0.681
relative viability ([2]; first compound 8 µM): 0.651
relative viability ([3]; first compound 0.08 µM): 0.794
relative viability ([3]; first compound 0.253 µM): 0.782
relative viability ([3]; first compound 0.8 µM): 0.942
relative viability ([3]; first compound 2.53 µM): 0.825
relative viability ([3]; first compound 8 µM): 0.693

SW 900
relative viability ([1]; first compound 0.08 µM): 0.859
relative viability ([1]; first compound 0.8 µM): 1.19
relative viability ([1]; first compound 2.53 µM): 1.11
relative viability ([1]; first compound 8 µM): 0.976
relative viability ([2]; first compound 0.253 µM): 0.388
relative viability ([2]; first compound 2.53 µM): 0.548
relative viability ([2]; first compound 8 µM): 0.469
relative viability ([3]; first compound 0.08 µM): 0.478
relative viability ([3]; first compound 0.8 µM): 0.495
relative viability ([3]; first compound 2.53 µM): 0.472
relative viability ([3]; first compound 8 µM): 0.383
